According to article PMC11459923, “Identification of novel and potent inhibitors of SARS-CoV-2 main protease from DNA-encoded chemical libraries” (Antimicrobial Agents and Chemotherapy, 2024):

Target: SARS-CoV-2 M^pro (Severe acute respiratory syndrome coronavirus 2, UniProt P0DTD1)
Test: In vitro FRET enzymatic assay (screening at 1 µM and SAR IC50)
Type: biochemical
Details: for inhibition at 1 µM: read-out: M^pro inhibition % (comp. conc. 1 µM)

Row | Structure (SMILES) | inhibition at 1 µM | M^pro inhibition % (comp. conc. 1 µM) | IC50 (IC50 ± SEM) | IC50 (IC50 M^pro)
1 | N#Cc1cc(C(=O)N[C@H](CC2CCC2)C(=O)N[C@H](CC(=O)N[C@H](Cc2ccncc2)C(=O)O)Cc2c[nH]c3ccccc23)ccn1 [MP1] | 97% | – | – | –
2 | N#Cc1cc(C(=O)N[C@H](CC2CCC2)C(=O)N[C@H](CC(=O)O)Cc2c[nH]c3ccccc23)ccn1 [MP2] | ~2% | 2.2% | – | –
3 | N#Cc1cc(C(=O)N[C@H](CC2CCC2)C(=O)N[C@H](CC(=O)N[C@H](Cc2ccccc2)C(=O)O)Cc2c[nH]c3ccccc23)ccn1 [MP3] | ~30% | 30.4% | – | –
4 | N#Cc1cc(C(=O)N[C@H](CC2CCC2)C(=O)N[C@H](CC(=O)N[C@H](Cc2ccc(Cl)cc2)C(=O)O)Cc2c[nH]c3ccccc23)ccn1 [MP4] | ~30% | – | – | –
5 | N#Cc1cc(C(=O)N[C@H](CC2CCC2)C(=O)NCCC(=O)N[C@H](Cc2ccncc2)C(=O)O)ccn1 [MP5] | ~8% | 8.1% | – | –
6 | N#Cc1cccc(C(=O)N[C@H](CC2CCC2)C(=O)N[C@H](CC(=O)N[C@H](Cc2ccncc2)C(=O)O)Cc2c[nH]c3ccccc23)c1 [MP6] | ~18% | 17.8% | – | –
7 | O=Cc1cccc(C(=O)N[C@H](CC2CCC2)C(=O)N[C@H](CC(=O)N[C@H](Cc2ccncc2)C(=O)O)Cc2c[nH]c3ccccc23)c1 [MP7] | 100% | – | – | –
8 | CC(=O)c1cccc(C(=O)N[C@H](CC2CCC2)C(=O)N[C@H](CC(=O)N[C@H](Cc2ccncc2)C(=O)O)Cc2c[nH]c3ccccc23)c1 [MP8] | ~18% | 18.2% | – | –
9 | CCCC[C@@H](NC(=O)c1ccnc(C#N)c1)C(=O)N[C@H](CC(=O)N[C@H](Cc1ccncc1)C(=O)O)Cc1c[nH]c2ccccc12 [MP9] | 86.6% | – | – | –
10 | N#Cc1cc(C(=O)N[C@H](Cc2ccc(Cl)cc2)C(=O)N[C@H](CC(=O)N[C@H](Cc2ccncc2)C(=O)O)Cc2c[nH]c3ccccc23)ccn1 [MP10] | 95.7% | – | 71 ± 7 nM | –
11 | N#Cc1cc(C(=O)N[C@H](Cc2ccc(Cl)c(Cl)c2)C(=O)N[C@H](CC(=O)N[C@H](Cc2ccncc2)C(=O)O)Cc2c[nH]c3ccccc23)ccn1 [MP11] | 90.7% | – | 69 ± 4 nM | –
12 | N#Cc1cc(C(=O)N[C@H](CC2CCC2)C(=O)N[C@H](CC(=O)N[C@H](Cc2ccncc2)C(=O)NCc2ccccc2)Cc2c[nH]c3ccccc23)ccn1 [MP12] | 96.5% | – | – | –
13 | N#Cc1cc(C(=O)N[C@H](CC2CCC2)C(=O)N[C@H](CC(=O)N[C@H](Cc2ccncc2)C(=O)NCCN2CCOCC2)Cc2c[nH]c3ccccc23)ccn1 [MP13] | 94.2% | – | 47 ± 6 nM | –
14 | N#Cc1cc(C(=O)N[C@H](CC2CCC2)C(=O)N[C@H](CC(=O)N[C@H](Cc2ccncc2)C(=O)NCc2ccccn2)Cc2c[nH]c3ccccc23)ccn1 [MP14] | 98.2% | – | 45 ± 9 nM | –
15 | N#Cc1cc(C(=O)N[C@H](CC2CCC2)C(=O)N[C@H](CC(=O)N[C@H](Cc2ccncc2)C(=O)NCc2cccc(Cl)c2)Cc2c[nH]c3ccccc23)ccn1 [MP15] | 66.8% | – | – | –
16 | N#Cc1cc(C(=O)N[C@H](CC2CCC2)C(=O)N[C@H](CC(=O)N[C@H](Cc2ccncc2)C(=O)NCCc2c[nH]c3ccccc23)Cc2c[nH]c3ccccc23)ccn1 [MP16] | 94.7% | – | 33 ± 3 nM | 47 nM
